This note sets out measurements from US6767741B1, “Metal binding compounds and their use in cell culture medium compositions” (Invitrogen Corporation, priority 1999, dated 2004).

What all share (type): cell-based
What all share (details): third passage, control = 5 μg/mL human holo-transferrin, duplicate cultures

The test system of one assay is CHO cells. In words: Growth of CHO cells in transferrin-free CD CHO medium with metal binding compounds. The procedure:
The ability of metal binding compounds to support cellular growth in the absence of transferrin was evaluated using CHO cells maintained in CD CHO medium (Life Technologies, Rockville, Md., the formulation of which is described in WO 98/08934). Stock cultures containing 5 μg/mL human holo-transferrin were prepared in CD CHO medium. For metal binding compound evaluation, CHO cells were established in 125 mL shaker flasks at an initial viable seeding density of 1×10^5 cells/mL in a final volume of 20 mL. All cultures were maintained at 37° C. in humidified air containing 8% CO2. To eliminate transferrin carry-over effects, cells were subcultured at 4 day intervals for a total of three passages. Positive control cultures contained 5 μg/mL human holo-transferrin while negative control cultures were established in the absence of either transferrin or metal binding compound. Metal binding compound stocks were prepared at 0.1M-0.2M in ddH2O and solubilized when necessary using 5N NaOH or HCl. Iron complexes were established using 0.2M metal binding compound and iron stocks mixed 1:1 (v/v) and incubated for 5-10 minutes at 22° C. All solutions containing metal binding compounds were filter sterilized using a 0.22 μm Millex-GV filter prior to addition to transferrin and serum-free media.
(§1) In most cases, metal binding compounds were evaluated either alone or in combination with ferric chloride or ferrous sulfate at 25 μM, 50 μM and 100 μM. Values in the table represent the mean percentage of control growth for duplicate cultures determined at the third passage.
The ability of various metal binding compounds to substitute for transferrin in the culture of CHO cells was determined. When added to the medium formulation un-complexed, the metal binding compound is listed alone, when added as a complex with a transition metal, the source of the transition metal is listed with the metal binding compound.

The next assay has as its system 293 cells. Nature of the assay: Growth of 293 cells in transferrin-free 293 SFM with metal binding compounds. The procedure:
Semi-confluent adherent cultures of 293 Cells (ATCC, CRL 1573) are readily adapted to suspension culture. The cells are first detached with a solution of Trypsin-EDTA (0.05% Trypsin, 0.53 mM Na4EDTA), and then resuspended in conventional medium supplemented with 10% FBS to inhibit the trypsin. The resuspended cells are centrifuged at 200×g for five minutes. The cell pellet is resuspended in 293 SFM (available from Life Technologies, Rockville, Md.) the formulation of which is described in WO 98/08934 which is specifically incorporated herein by reference. Alternatively, the cells may be detached with Versene (Na4EDTA, 0.53 mM) and resuspended in 293 SFM.
The initial seeding density of the 293 cells after conversion to suspension culture is 1×10^6 cells/mL. The cells are shaken on a rotary shaker at 150 rpm in a 37° C. incubator equilibrated with 8% CO2-92% air. When the cells reach a density of 1.5×10^6 cells/mL they are diluted with 293 SFM to a density of 3.0×10^5 cells/mL. Because 293 cells have a tendency to aggregate, the cells may be vortexed vigorously for approximately 45 seconds to obtain a predominantly single cell suspension at the time of passaging and counting. After several passages in suspension culture, the maximum achievable density may be determined.
The ability of metal binding compounds to support cellular growth was evaluated using 293 cells maintained in 293 SFM (Life Technologies, Rockville, Md.) without transferrin or metal binding compound. Stock cultures containing 5 μg/mL human holo-transferrin were prepared in 293 SFM. For metal binding compound evaluation, 293 cells were established in 125 mL shaker flasks at an initial viable seeding density of 2×10^5 cells/mL in a final volume of 20 mL. All cultures were maintained at 37° C. in humidified air containing 8% CO2. To eliminate transferrin carry-over effects, cells were subcultured at 4 day intervals for a total of three passages. At each subculturing, cells were seeded at a density of 2×10^5 cells/mL. Positive control cultures contained 5 μg/mL human holo-transferrin while negative control cultures were established in the absence of either transferrin or metal binding compound. Metal binding compound stocks were prepared at 0.1M-0.2M in ddH2O and solubilized when necessary using 5N NaOH or HCl. Iron complexes were established using 0.2M metal binding compound and iron stocks mixed 1:1 (v/v) and incubated for 5-10 minutes at 22° C. All solutions containing metal binding compounds were filter sterilized using a 0.22 μm Millex-GV filter prior to addition to transferrin and serum-free media.
In most cases, metal binding compounds were evaluated either alone or in combination with ferric chloride or ferrous sulfate at 25 μM, 50 μM and 100 μM. When used in combination, the metal binding compounds were used in equimolar concentration with iron ions. Values in the table represent the mean percentage of control growth for duplicate cultures determined at the third passage.
(§2) When added to the medium formulation un-complexed, the metal binding compound is listed alone, when added as a complex with a transition metal, the source of the transition metal is listed with the metal binding compound.

In a further assay the test system is Sp2/0 cells. Nature of the assay: Growth of Sp2/0 cells in transferrin-free CD Hybridoma medium with metal binding compounds. The procedure:
The ability of iron metal binding compounds to support cellular growth in the absence of transferrin was evaluated using Sp2/0 cells maintained in CD Hybridoma medium (Life Technologies, Rockville, Md.). Stock cultures containing 5 μg/mL human holo-transferrin were prepared in CD Hybridoma medium. For metal binding compound evaluation, Sp2/0 cells were established at an initial viable cell density of 0.5×10^5 cells/mL in stationary culture using 75 cm^2 tissue culture flasks in a final volume of 20 mL. All cultures were maintained at 37° C. in humidified air containing 8% CO2. To eliminate transferrin carry-over effects, cells were subcultured at the same seeding density at 4 day intervals for a total of three passages. Positive control cultures contained 5 μg/mL human holotransferrin while negative control cultures were established in the absence of either transferrin or metal binding compound. Metal binding compound stocks were prepared at 0.1M-0.2M in ddH2O and solubilized when necessary using 5N NaOH or HCl. Iron complexes were established using 0.2M metal binding compound and iron stocks mixed 1:1 (v/v) and incubated for 5-10 minutes at 22° C. All solutions containing metal binding compounds were filter sterilized using a 0.22 μm Millex-GV filter prior to addition to transferrin and serum-free media.
as §1, §2

For the compound `[Cl][Fe]([Cl])[Cl].c1ccc(Nc2ccccn2)nc1` [2,2-Dipyridylamine · Ferric Chloride], the “mean percentage of control growth” value with CHO cells (25 μM) turned out to be 40%; in the assay on CHO cells (50 μM), 48%; with CHO cells (100 μM) it was 65%; in the assay on 293 cells (25 μM), 118%; in the assay on 293 cells (50 μM) it was 96%; in the assay with 293 cells (100 μM) it was 101%.

Take `O=C(O)c1cccc(O)c1O.[Cl][Fe]([Cl])[Cl]` [2,3-Dihydrobenzoic Acid · Ferric Chloride]: the “mean percentage of control growth” value in the assay on CHO cells (25 μM) came to 71%; with CHO cells (50 μM), 0%; in the assay on CHO cells (100 μM), 0%.

As for `CCc1occc(=O)c1O` [2-Ethyl-3-Hydroxy-4-Pyrone], the “mean percentage of control growth” value came out at 9% in the assay with CHO cells (25 μM); 60% in the assay on CHO cells (50 μM); 113% in the assay on CHO cells (100 μM); 59% in the assay on 293 cells (25 μM); 120% in the assay with 293 cells (50 μM); 126% in the assay with 293 cells (100 μM). In addition, the entries for the “mean percentage of control growth” value in the assay with Sp2/0 cells (25 μM), in the assay on Sp2/0 cells (50 μM) and in the assay with Sp2/0 cells (100 μM) were 0%, 75% and 116%, respectively.

Consider `O=C(O)c1ccccn1.[Cl][Fe]([Cl])[Cl]` [2-Pyridinecarboxylic Acid · Ferric Chloride], for which the “mean percentage of control growth” value in the assay with CHO cells (25 μM) is 88%; with CHO cells (50 μM) it was 89%; in the assay with CHO cells (100 μM), 100%; in the assay with Sp2/0 cells (25 μM), 0%; with Sp2/0 cells (50 μM), 30%; with Sp2/0 cells (100 μM), 48%.

Regarding `[Cl][Fe]([Cl])[Cl].[O-][n+]1cccc(O)c1` [3-Hydroxypyridine-N-Oxide · Ferric Chloride], the “mean percentage of control growth” value in the assay with CHO cells (25 μM) was 77%; with CHO cells (50 μM), 66%; in the assay with CHO cells (100 μM), 101%; in the assay with 293 cells (25 μM) it was 77%; in the assay on 293 cells (50 μM), 72%; in the assay with 293 cells (100 μM) it was 81%. In addition, the “mean percentage of control growth” value in the assay with Sp2/0 cells (25 μM) stood at 55%; in the assay with Sp2/0 cells (50 μM), 54%; with Sp2/0 cells (100 μM), 57%.

With `Cc1ncc(CO)c(C(=O)O)c1O.[Cl][Fe]([Cl])[Cl]` [4-Pyridoxic Acid · Ferric Chloride], the “mean percentage of control growth” value worked out at 55% in the assay with CHO cells (25 μM); 63% with CHO cells (50 μM); 100% in the assay on CHO cells (100 μM); 109% with 293 cells (25 μM); 85% with 293 cells (50 μM); 99% in the assay with 293 cells (100 μM). The “mean percentage of control growth” value in the assay on Sp2/0 cells (25 μM) is listed as 40%; in the assay on Sp2/0 cells (50 μM), 73%; in the assay with Sp2/0 cells (100 μM), 76%.

Take `NC(CC(=O)O)C(=O)O.[Cl][Fe]([Cl])[Cl]` (stereo not drawn) [Aspartic Acid · Ferric Chloride]: the “mean percentage of control growth” value in the assay with CHO cells (25 μM) is recorded as 77%; in the assay with CHO cells (50 μM), 89%; in the assay with CHO cells (100 μM), 112%; in the assay with 293 cells (25 μM), 81%; in the assay with 293 cells (50 μM) it was 86%; with 293 cells (100 μM), 100%.

Turning to `NC(CS)C(=O)O.O=S(=O)([O-])[O-].[Fe+2]` (stereo not drawn) [Cysteine · Ferrous Sulfate], the “mean percentage of control growth” value is 83% with CHO cells (25 μM); 64% in the assay on CHO cells (50 μM); 45% in the assay on CHO cells (100 μM); 85? % in the assay with Sp2/0 cells (25 μM); 79% with Sp2/0 cells (50 μM); 67% in the assay on Sp2/0 cells (100 μM).

Turning to `O=c1cc(CO)occ1O.[Cl][Fe]([Cl])[Cl]` [Kojic Acid · Ferric Chloride], the “mean percentage of control growth” value was 89% in the assay on CHO cells (25 μM); 88% in the assay on CHO cells (50 μM); 85% in the assay with CHO cells (100 μM); 0% in the assay on Sp2/0 cells (25 μM); 0% in the assay on Sp2/0 cells (50 μM); 0% in the assay with Sp2/0 cells (100 μM).

With `O=c1cc(CO)occ1O` [Kojic Acid], the “mean percentage of control growth” value with CHO cells (25 μM), in the assay with CHO cells (50 μM), in the assay with CHO cells (100 μM), in the assay on Sp2/0 cells (25 μM), with Sp2/0 cells (50 μM) and in the assay with Sp2/0 cells (100 μM) was 0% throughout.

Consider `NCCCCC(N)C(=O)O.[Cl][Fe]([Cl])[Cl]` (stereo not drawn) [Lysine · Ferric Chloride], for which the “mean percentage of control growth” value in the assay with CHO cells (25 μM) is reported as 51%; in the assay with CHO cells (50 μM), 79%; in the assay with CHO cells (100 μM), 98%.

Consider `O=C(O)c1ccc[n+]([O-])c1.[Cl][Fe]([Cl])[Cl]` [Nicotinic Acid-N-Oxide · Ferric Chloride], for which the “mean percentage of control growth” value with CHO cells (25 μM) came to 60%; with CHO cells (50 μM), 84%; in the assay on CHO cells (100 μM) it was 105%; with 293 cells (25 μM), 104%; in the assay with 293 cells (50 μM), 80%; in the assay with 293 cells (100 μM), 79%.

Turning to `OC[C@@H](O)[C@@H](O)[C@H](O)[C@@H](O)CO.[Cl][Fe]([Cl])[Cl]` [Sorbitol · Ferric Chloride], the “mean percentage of control growth” value was 100% in the assay on CHO cells (25 μM); 107% in the assay on CHO cells (50 μM); 112% in the assay on CHO cells (100 μM); 94% in the assay on Sp2/0 cells (25 μM); 55% with Sp2/0 cells (50 μM); 60% with Sp2/0 cells (100 μM).
